The values below come from patent US10898582B2, “Bi-functional allosteric protein-drug molecules for targeted therapy” (UNIVERSITY OF UTAH RESEARCH FOUNDATION, priority 2014, dated 2021).

For experiment [1], the system named is MCF-7 breast cancer cells. In words: Viability of MCF-7 breast cancer cells, dose-dependent IC50. The format is cell-based. Here is the method: To test the therapeutic efficacy of the formulation of PTD-ABD-17-AAG in MCF-7 breast cancer cells, the IC50 value was determined in a dose-dependent manner. The IC50 value is a measure of how effective a drug or therapeutic is and is defined as the concentration required to inhibit a biological process or component of a biological process (e.g., enzyme, cell, cell receptor) in half. The PTD-ABD-17-AAG was prepared as described above (Example 1) and administered to cancer cells. MCF-7 cells were exposed to one of the following formulations: 1) PTD-ABD-17-AAG; 2) 17-AAG; or 3) PTD-ABD.

In the next experiment the test system is breast cancer cells. In words: Short-term (4 hours) treatment of breast cancer cells, dose-dependent IC50. The format is cell-based. Conditions: breast cancer cells exposed for 4 hours. On the procedure: To examine whether the improved cellular uptake of 17-AAG by the PTD-ABD leads to enhanced efficacy of 17-AAG, breast cancer cells were exposed to 17-AAG or the PTD-ABD-17-AAG for 4 hours in a dose-dependent manner. […] Due to the facilitated uptake of 17-AAG bound to the PTD-ABD, the short-term treatment of 17-AAG at low concentrations can increase the cellular concentration of 17-AAG, which results in the enhanced anti-cancer efficacy of 17-AAG. Free 17-AAG was not sufficiently internalized into cells during the short incubation time because of the poor uptake kinetics of free 17-AAG.

The subject of another experiment is MCF-7 cells. The experiment can be described thus: Uptake kinetics of FITC-GM into MCF-7 cells. The format is cell-based. Conditions: 2 hours post-treatment. On the procedure:
Finally, 10 μg/ml of GM was sufficient to achieve internalization into 100% of the cell population when delivered by the PTD-ABD protein (FIG. 3c).

For a further experiment, the system named is microtubules. Conditions: cited from earlier work.

The term IC50 denotes the concentration that inhibits the measured activity by half. Read a high IC50 as weaker potency in that assay. For `C=CCNC1=C2C[C@@H](C)C[C@H](OC)[C@H](O)[C@@H](C)/C=C(\C)[C@H](OC(N)=O)[C@@H](OC)/C=C\C=C(/C)C(=O)NC(=CC1=O)C2=O` [17-AAG, 17-allylamino-17-demethoxygeldanamycin], the IC50 in experiment [1] turned out to be 15 µM. Also, the IC50 value result with breast cancer cells is reported as “approximately 25 μg/ml”.

Regarding `COC1=C2C[C@@H](C)C[C@H](OC)[C@H](O)[C@@H](C)/C=C(\C)[C@H](OC(N)=O)[C@@H](OC)/C=C\C=C(/C)C(=O)NC(=CC1=O)C2=O` [GM, Geldanamycin], in the experiment on MCF-7 cells, the “cell population positive to FITC (GM internalized)” value is given as 60%.

With `CC(=O)O[C@H]1C(=O)[C@@]2(C)[C@H]([C@H](OC(=O)c3ccccc3)[C@]3(O)C[C@H](OC(=O)[C@H](O)[C@@H](NC(=O)c4ccccc4)c4ccccc4)C(C)=C1C3(C)C)[C@]1(OC(C)=O)CO[C@@H]1C[C@@H]2O` [PTX, paclitaxel], the “binding affinity Ka to microtubules” value in the experiment with microtubules is about 6e+07 M⁻¹.
